{"source": "paper PMC8560763", "about": "“Roles of metal ions in the selective inhibition of oncogenic variants of isocitrate dehydrogenase 1” (Communications Biology, 2021)", "key": {"wt IDH1 [1]": {"biological_target": "T1, wt IDH1 (Homo sapiens, UniProt O75874)", "T1 construct": "made in house; host or cells: Escherichia coli BL21(DE3) pLyS", "T1 sequence (O75874 2-414)": "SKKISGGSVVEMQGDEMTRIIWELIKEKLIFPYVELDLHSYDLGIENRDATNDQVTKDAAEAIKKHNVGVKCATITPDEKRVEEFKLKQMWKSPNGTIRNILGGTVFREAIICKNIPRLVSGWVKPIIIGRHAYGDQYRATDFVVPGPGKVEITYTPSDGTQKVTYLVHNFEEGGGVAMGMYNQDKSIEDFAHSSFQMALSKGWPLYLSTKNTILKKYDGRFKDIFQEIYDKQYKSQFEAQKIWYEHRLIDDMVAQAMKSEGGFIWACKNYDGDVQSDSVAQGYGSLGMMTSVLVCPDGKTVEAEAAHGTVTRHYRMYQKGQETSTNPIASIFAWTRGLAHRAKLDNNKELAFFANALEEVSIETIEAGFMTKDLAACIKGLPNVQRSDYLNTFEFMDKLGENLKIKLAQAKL", "test": "Isothermal titration calorimetry (ITC), binding to wt IDH1", "conditions": "alone, EDTA-treated wt IDH1, 50 mM Tris-HCl, pH 7.5", "protocol": "ITC experiments were conducted using a Malvern MicroCal PEAQ-ITC Automated machine. In general, the protein was prepared in 50 mM Tris-HCl ± 5 mM metal chloride salts at pH 7.5; substrates were dissolved in the same buffer. Four hundred microlitres of cell solution and 200 µL of titrant were transferred to an ITC plate. […] The injection setup consisted of 19 injections that have one initial injection of 0.4 µL and 18 injections of 2.0 µL each with 150 s between the injections. The thermodynamic parameters were obtained using the MicroCal PEAQ-ITC analysis software."}, "wt IDH1 [2]": {"biological_target": "T1, wt IDH1", "test": "Absorbance assay: kinetics of reductive reaction (2OG to isocitrate) by wt IDH1", "type": "biochemical", "conditions": "wt IDH1, reductive reaction with Mg^2+", "procedure": "(§1) All experiments were performed in (at least) triplicate.\n(§2) KM values were determined by varying concentrations of the substrate/cofactor under investigation while maintaining the concentrations of other components using standard conditions. […] Graphs were fitted using GraphPad Prism to obtain kinetic parameters."}, "wt IDH1 [3]": {"biological_target": "T1, wt IDH1", "test": "Absorbance assay: effect of metal ions on catalysis and inhibition of wt IDH1", "type": "biochemical", "conditions": "wt IDH1, metal ions 10 mM", "protocol": "Inhibition assays of wt or R132H IDH1 with metal ions were conducted with a 12 min pre-incubation of metal ions (25 µL, final concentration 10 mM) and enzyme (25 µL) before the addition of substrate (25 µL) and cofactor (25 µL). […] The difference in absorbance, ΔA340, in the linear range of the reaction profile was converted to % residual activity with the DMSO control being the 100% residual activity reference."}, "wt IDH1 [4]": {"biological_target": "T1, wt IDH1", "test": "Absorbance assay (NADPH, 340 nm): kinetics of oxidative reaction (isocitrate to 2OG) by wt IDH1", "type": "biochemical", "procedure": "as §1, §2"}, "wt IDH1 [5]": {"biological_target": "T1, wt IDH1", "test": "Differential scanning fluorimetry (DSF) thermal shift, wt IDH1", "type": "binding", "conditions": "for Δ in Tm: Fig. 2e; for thermal stabilisation: wt IDH1, Mg^2+ alone, 0.032–20 mM", "procedure": "Thermal shift experiments were carried out using Sypro Orange dye and a CFX96 Touch^TM Real-Time PCR Detection System (Bio-Rad)[69]. […] The standard assay buffer contains 50 mM Tris-HCl at pH 7.5. Various concentrations of substrates were mixed with IDH1 for thermal stabilisation studies. […] Bio-Rad CFX Manager was used to determine the melting temperature, Tm."}, "[6]": {"test": "ITC, metal ion binding to DL-isocitrate", "conditions": "read-out: KD for metal ion binding to DL-isocitrate; metal ion (10 mM), DL-isocitrate (500 µM), 50 mM Tris-HCl, pH 7.5", "procedure": "ITC experiments were conducted using a Malvern MicroCal PEAQ-ITC Automated machine. In general, the protein was prepared in 50 mM Tris-HCl ± 5 mM metal chloride salts at pH 7.5; substrates were dissolved in the same buffer. Four hundred microlitres of cell solution and 200 µL of titrant were transferred to an ITC plate. Titrations were conducted at 25 °C with an initial delay of 60 s and a stir speed of 750 r.p.m. The injection setup consisted of 19 injections that have one initial injection of 0.4 µL and 18 injections of 2.0 µL each with 150 s between the injections. The thermodynamic parameters were obtained using the MicroCal PEAQ-ITC analysis software."}, "[7]": {"conditions": "wt IDH1, oxidative reaction with Mg^2+ (10 mM MgCl2)"}}, "note": "Several values for one entry are separate records, joined by “and”; a condition that tells them apart may be missing. Identical values can stand only once.", "data": [{"compound": "[Cl-].[Cl-].[Mg+2]", "note": "[MgCl2]", "values": [{"measurement": "Kd", "setting": "wt IDH1 [1]", "result": "> 8", "unit": "mM"}, {"measurement": "kcat", "setting": "wt IDH1 [2]", "result": "2.1 ± 0.1", "unit": "s⁻¹"}, {"measurement": "effect of metal ion on catalysis", "setting": "wt IDH1 [3]", "result": "promoted"}, {"measurement": "Velocity", "setting": "wt IDH1 [4]; Fig. S2c, [MgCl2] 1.95312 μM", "result": "0.01456 µM/s and 0.01492 µM/s and 0.01895 µM/s"}, {"measurement": "Velocity", "setting": "wt IDH1 [4]; Fig. S2c, [MgCl2] 3.90625 μM", "result": "0.02158 µM/s and 0.02123 µM/s and 0.02246 µM/s"}, {"measurement": "Velocity", "setting": "wt IDH1 [4]; Fig. S2c, [MgCl2] 7.8125 μM", "result": "0.03106 µM/s and 0.03492 µM/s and 0.04106 µM/s"}, {"measurement": "Velocity", "setting": "wt IDH1 [4]; Fig. S2c, [MgCl2] 15.625 μM", "result": "0.05387 µM/s and 0.06159 µM/s and 0.06633 µM/s"}, {"measurement": "Velocity", "setting": "wt IDH1 [4]; Fig. S2c, [MgCl2] 31.25 μM", "result": "0.08809 µM/s and 0.1025 µM/s and 0.1206 µM/s"}, {"measurement": "Velocity", "setting": "wt IDH1 [4]; Fig. S2c, [MgCl2] 62.5 μM", "result": "0.1304 µM/s and 0.136 µM/s and 0.1651 µM/s"}, {"measurement": "Velocity", "setting": "wt IDH1 [4]; Fig. S2c, [MgCl2] 250 μM", "result": "0.1516 µM/s and 0.1788 µM/s and 0.1943 µM/s"}, {"measurement": "Velocity", "setting": "wt IDH1 [4]; Fig. S2c, [MgCl2] 500 μM", "result": "0.1764 µM/s and 0.1771 µM/s and 0.2318 µM/s"}, {"measurement": "Velocity", "setting": "wt IDH1 [4]; Fig. S2c, [MgCl2] 1000 μM", "result": "0.1957 µM/s and 0.2076 µM/s and 0.2279 µM/s"}, {"measurement": "Velocity", "setting": "wt IDH1 [4]; Fig. S2c, [MgCl2] 2000 μM", "result": "0.2057 µM/s and 0.2199 µM/s and 0.2304 µM/s"}, {"measurement": "Velocity", "setting": "wt IDH1 [4]; Fig. S2d, [MgCl2] 15.625 μM", "result": "0.01053 µM/s and 0.01316 µM/s"}, {"measurement": "Velocity", "setting": "wt IDH1 [4]; Fig. S2d, [MgCl2] 31.25 μM", "result": "0.02369 µM/s and 0.03159 µM/s and 0.03685 µM/s"}, {"measurement": "Velocity", "setting": "wt IDH1 [4]; Fig. S2d, [MgCl2] 62.5 μM", "result": "0.03422 µM/s and 0.03685 µM/s and 0.04738 µM/s"}, {"measurement": "Velocity", "setting": "wt IDH1 [4]; Fig. S2d, [MgCl2] 250 μM", "result": "0.0737 µM/s and 0.08423 µM/s and 0.07633 µM/s"}, {"measurement": "Velocity", "setting": "wt IDH1 [4]; Fig. S2d, [MgCl2] 500 μM", "result": "0.09476 µM/s and 0.07896 µM/s"}, {"measurement": "Velocity", "setting": "wt IDH1 [4]; Fig. S2d, [MgCl2] 1000 μM", "result": "0.1027 µM/s and 0.08949 µM/s and 0.09476 µM/s"}, {"measurement": "Velocity", "setting": "wt IDH1 [4]; Fig. S2d, [MgCl2] 2000 μM", "result": "0.08949 µM/s and 0.1079 µM/s and 0.09212 µM/s"}, {"measurement": "kcat", "setting": "wt IDH1 [4]; wt IDH1, oxidative reaction with Mg^2+", "result": "50 ± 4", "unit": "s⁻¹"}, {"measurement": "Km", "setting": "wt IDH1 [4]; [7]", "result": "36 ± 4", "unit": "µM"}, {"measurement": "Vmax", "setting": "wt IDH1 [4]; [7]", "result": "214 ± 5", "unit": "nM/s"}, {"measurement": "Km", "setting": "wt IDH1 [4]; wt IDH1 isocitrate oxidation, in the presence of 150 mM NaCl", "result": 94, "unit": "µM"}, {"measurement": "Δ in Tm", "setting": "wt IDH1 [5]; wt IDH1, 0.8 mM MgCl2, replicates", "result": "-0.3 °C and -0.1 °C (2×)"}, {"measurement": "Δ in Tm", "setting": "wt IDH1 [5]; wt IDH1, 4 mM MgCl2, replicates", "result": -0.1, "unit": "°C"}, {"measurement": "Δ in Tm", "setting": "wt IDH1 [5]; wt IDH1, 20 mM MgCl2, replicates", "result": "-0.5 °C and -0.1 °C (2×)"}, {"measurement": "thermal stabilisation", "setting": "wt IDH1 [5]", "result": "no thermal shift"}, {"measurement": "thermal stabilisation", "setting": "wt IDH1 [5]; listed as Mg^2+", "result": "does not stabilise"}, {"measurement": "thermal stabilisation (shift in Tm)", "setting": "wt IDH1 [5]; wt IDH1, divalent metal ions (5 mM), 50 mM Tris-HCl, pH 7.5", "result": "less stabilising effect"}, {"measurement": "Kd", "setting": "[6]", "result": 1.5, "unit": "mM"}]}]}
